The first assay has as its target NAD synthetase ( EC 6.3.1.5 ) (Escherichia coli, UniProt P18843).
Test: not given
To be noted: read-out: km-value, literature value; cited from earlier work.
Chain of NAD synthetase ( EC 6.3.1.5 ) (P18843 whole entry): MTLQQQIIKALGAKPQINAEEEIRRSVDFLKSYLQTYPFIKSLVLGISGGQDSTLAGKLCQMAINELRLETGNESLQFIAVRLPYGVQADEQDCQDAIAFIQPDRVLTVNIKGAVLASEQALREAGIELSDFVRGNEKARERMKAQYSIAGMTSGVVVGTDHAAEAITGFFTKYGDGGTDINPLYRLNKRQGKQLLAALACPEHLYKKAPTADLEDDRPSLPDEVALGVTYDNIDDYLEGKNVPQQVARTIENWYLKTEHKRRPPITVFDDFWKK
A word on the Km: it is the concentration of substrate that gives half-maximal velocity. Regarding `NC(=O)CC[C@H](N)C(=O)O` [L-glutamine], the Km was 16 mM.

A further assay concerns the target T1, NAD synthetase (Geobacillus stearothermophilus ATCC 12980, UniProt A0ACH1E6M2).
T1 sequence (A0ACH1E6M2 1-246): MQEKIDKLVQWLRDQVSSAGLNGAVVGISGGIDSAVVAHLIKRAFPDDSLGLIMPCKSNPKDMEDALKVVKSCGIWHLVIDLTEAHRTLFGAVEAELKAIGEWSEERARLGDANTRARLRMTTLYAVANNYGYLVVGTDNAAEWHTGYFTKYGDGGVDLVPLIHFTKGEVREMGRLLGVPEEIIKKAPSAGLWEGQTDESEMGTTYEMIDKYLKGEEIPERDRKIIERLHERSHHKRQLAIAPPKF
Briefly: Optimum concentration of metallic ion (Example 8). It is filed as biochemical, Bacillus stearothermophilus H-804. To be noted: 0.25 to 4 mM tested in reaction medium I without MgCℓ2. As for the experimental part: Reaction medium I : • 50 mM Tris-HC ℓ buffer pH 8.0 • 10 mM KC ℓ • 2 mM ATP • 0.05 % bovine serum albumin • 0.5 mM deamide-NAD • 25 mM ( NH4 )2SO4
Reaction medium II: • 50 mM Tris-HC ℓ buffer pH 8.0 • 10 U diaphorase/m ℓ ( Toyo Jozo Co, Bacillus ) • 3 % ethanol • 10 U alcohol dehydrogenase/mℓ (Toyobo Co, yeast) • 0.025 % NTB • 0.1 % Triton X-100 • 10mM EDTA
To a reaction medium I in a test tube were added 0.25, 0.50, 0.75, 1, 2, 3 and 4 mM MgCℓ2 and 0.25, 0.50, 0.75, 1, 2, 3 and 4 mM MnCℓ2, respectively; each was then treated, after adding the present NAD synthetase solution, according to an assay method as previously illustrated.
Optimum concentration of MnCℓ2 is at 3mM.
In turn, MnCℓ2 showed an Optimum concentration of 3 mM.

Another assay addresses T1, NAD synthetase. Briefly: biochemical. It is filed as biochemical, Bacillus stearothermophilus H-804. The conditions noted are these: 5 mM in reaction medium I. As for the experimental part: In the enzyme activity assay, each metallic ion ( 5 mM ), EDTA ( 20 mM ) or each surface active agent ( 0.1 % ) in Table 1 is added separately to the reaction medium I, and the enzyme activity is measured. […]
(§1) • 50 mM Tris-HC ℓ buffer pH 8.0 • 1 mM K C ℓ • 5 mM MgC ℓ 2 • 0.05 % bovine serum albumin • 2 mM ATP • 0.5 mM deamide-NAD • 25 mM ( NH4 )2 SO4
(§2) • 50 mM Tris-HCℓ buffer pH 8.0 • 10 U diaphorase ( Toyo Jozo Co. from genus Bacillus) • 3 % ethanol • 10 U alcohol dehydrogenase/m ℓ ( Toyo Jozo, yeast ) • 0.025 % NTB ( nitrotetrazolium blue ) • 0.1 % Triton X-100 • 10 mM EDTA
(§3) Reaction medium I ( 0.3 mℓ ) in a test tube is pre-incubated at 37 °C, and the enzyme solution ( 5 µ ℓ ) is added thereto. The mixture is then incubated at 37 °C for exactly 10 minutes.
(§4) Reaction medium II ( 0.8 mℓ ) is added thereto to stop the reaction and simultaneously to start the cycling reaction at 37°C for exactly 5 minutes. After stopping the cycling reaction by adding 0.1 N-HC ℓ( 2.0 mℓ) , the absorbency at 550 nm is measured to calculate the enzyme activity. The enzyme activity is calculated by the following equation : NAD synthetase activity ( mU/ m ℓ ) = (ΔA550)/(ΔS550)x(1.0)/(0.005)x(f)/(10) [formula] wherein ΔA: absorbency of specimen, ΔS: absorbency of standard solution ( 0.1 mM NAD ), 0.005: specimen volume ( mℓ ) 10 : reaction time, f : dilution ration.
Turning to NiCℓ2, the “Effect on enzyme activity” value is “inhibited”.

Staying with this assay, now noted: 20000 µM.
For the compound `O=C(O)CN(CCN(CC(=O)O)CC(=O)O)CC(=O)O` [EDTA, reference compound], the “Effect on enzyme activity” value was “no activity”.

The assay is the same for the next values; noted with them: metallic ion 5 mM added to reaction medium I, which contains MgCℓ2 5 mM; no addition = 100; 10 min.
Take AℓCℓ3: the Relative activity was 73.4%.

In the case of BaCℓ2, the Relative activity came out at 89.5%.

Take CaCℓ2: the Relative activity amounted to 48.4%.

On to CsCℓ, for which the Relative activity turned out to be 100%.

For the compound FeCℓ3, the Relative activity turned out to be 88.4%.

As to KNO3, the Relative activity was 99.2%.

In the case of LiCℓ, the Relative activity turned out to be 100%.

Consider MnCℓ2, for which the Relative activity is reported as 54.0%.

NaCℓ: the Relative activity worked out at 102.4%.

NaN3: the Relative activity came to 102.4%.

Turning to NaNO3, the Relative activity is on record as 96.8%.

For the compound NiCℓ2, the Relative activity came to 7.3%.

The same assay, now with this note: read-out: Relative activity.
On to `O=C(O)CN(CCN(CC(=O)O)CC(=O)O)CC(=O)O` [EDTA, reference compound], for which the activity at 20000 µM amounted to 0%.

Still in this assay, the particulars now being: surface active agent 0.1 % added to reaction medium I, which contains MgCℓ2 5 mM; no addition = 100.
Turning to Nonidet P-40, the Relative activity came to 103.9%.

For the compound “iso-octyl phenoxy polyethyloxy ethanol [Triton X-100]”, the Relative activity turned out to be 109.6%.

For a further assay, the target named is T1, NAD synthetase. Briefly: Substrate specificity: ( NH4 ) 2SO4 replaced by amino acids in the enzyme activity assay. To be noted: ( NH4 ) 2SO4 25 mM replaced by the amino acid; activity on ( NH4 ) 2SO4 is 100. It is filed as biochemical, Bacillus stearothermophilus H-804. As to the method:
In any assay method for enzyme activity hereinafter described, ( NH4 ) 2SO4 25 mM may be replaced by L-valine, L-homosirine, L-serine, L-alanine, L-methine, L-tyrosine, L-threonine, L-leucine, L-isolucine, L-arginine, L-phenylalanine, L-histidine, L-asparagine or L-glutamine, and the enzymatic activity measured.
as §1, §2, §3, §4
For the compound ammonium sulfate [( NH4 ) 2SO4], the “Relative activity of the enzyme” value stood at 100.

Still in this assay, the particulars now being: ( NH4 ) 2SO4 25 mM replaced by the amino acid; activity on ( NH4 ) 2SO4 is 100; read-out: Relative activity of the enzyme.
For `C[C@H](N)C(=O)O` [L-alanine], the activity at 25000 µM came to 0%.

On to `N=C(N)NCCC[C@H](N)C(=O)O` [L-arginine], for which the activity at 25000 µM turned out to be 0%.

As to `NC(=O)C[C@H](N)C(=O)O` [L-asparagine], the activity at 25000 µM was found to be 0%.

On to `NC(=O)CC[C@H](N)C(=O)O` [L-glutamine], for which the activity at 25000 µM was 0%.

Take `N[C@@H](Cc1c[nH]cn1)C(=O)O` [L-histidine]: the activity at 25000 µM worked out at 0%.

As for `N[C@@H](CCO)C(=O)O` [L-homosirine], the activity at 25000 µM worked out at 0%.

With `CC[C@H](C)[C@H](N)C(=O)O` [L-isolucine], the activity at 25000 µM was 0%.

Regarding `CC(C)C[C@H](N)C(=O)O` [L-leucine], the activity at 25000 µM was 0%.

Take `CSCC[C@H](N)C(=O)O` [L-methine]: the activity at 25000 µM turned out to be 0%.

For the compound `N[C@@H](Cc1ccccc1)C(=O)O` [L-phenylalanine], the activity at 25000 µM turned out to be 0%.

For the compound `N[C@@H](CO)C(=O)O` [L-serine], the activity at 25000 µM worked out at 0%.

Take `C[C@@H](O)[C@H](N)C(=O)O` [L-threonine]: the activity at 25000 µM was 0%.

As for `N[C@@H](Cc1ccc(O)cc1)C(=O)O` [L-tyrosine], the activity at 25000 µM worked out at 0%.

On to `CC(C)[C@H](N)C(=O)O` [L-valine], for which the activity at 25000 µM turned out to be 0%.

The record behind these values is patent EP0525836B1, “Assay method using novel NAD synthetase” (priority 1986, dated 1988).
